Data from PubChem BioAssay (NCI).
Several values for one entry are separate records, joined by “and”; a condition that tells them apart may be missing. Equal entries are not always repeated.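 Step 1: Grow cells in 96-well plates. Step 2: Expose to compound for 48 hours at 5 concentrations. Step 3: Interpolate endpoints linearly; if unreached, use highest concentration. The concentration for 50% growth inhibition is given as GI50. At the TGI there is no net growth.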

Each compound was assayed on TK-10 renal (assay: NCI-60 cell line screen, 48 h).

Going from OCc1c[nH]c2ccccc12 to CC1=CC(=Nc2ccc(N(CCCl)CCCl)cc2)C=C(C)C1=O, the GI50 falls from 44.5 µM to 1.94 µM (23-fold).

OCc1c[nH]c2ccccc12 and CCN1CCC(O)(C(C(=O)O)c2ccccc2)CC1 (stereo not given) cannot be ordered by TGI: over 100 µM for the first, over 100 µM for the second.

First: CC1=CC(=Nc2ccc(N(CCCl)CCCl)cc2)C=C(C)C1=O
Second: CN(C)S(=O)(=O)Nc1nnc(S(N)(=O)=O)s1
The TGI of the first is lower: 5.55 µM for the first, over 100 µM for the second.

CCN(CC)CCOc1ccc(/C(=C(\Cl)c2ccccc2)c2ccccc2)cc1 was tested, and the GI50 was 5.62 µM and 2.83 µM.

With CCN(CC)CCOc1ccc(/C(=C(\Cl)c2ccccc2)c2ccccc2)cc1 the TGI was 12.6 µM and 10.2 µM.

These compounds were tested on IGROV1 ovarian (assay: NCI-60 cell line screen, 48 h).

Work on OCc1c[nH]c2ccccc12 yielded a GI50 of 14.1 µM.

First: OCc1c[nH]c2ccccc12
Second: CCN1CCC(O)(C(C(=O)O)c2ccccc2)CC1 (stereo not given)
The TGI of the first is lower: 42.2 µM for the first, over 100 µM for the second.

CN(C)S(=O)(=O)Nc1nnc(S(N)(=O)=O)s1 was tested, and the TGI was over 100 µM.

With CCN(CC)CCOc1ccc(/C(=C(\Cl)c2ccccc2)c2ccccc2)cc1 the GI50 was 4.83 µM and 3.04 µM.

With CCN(CC)CCOc1ccc(/C(=C(\Cl)c2ccccc2)c2ccccc2)cc1 the TGI was 12.8 µM and 14.1 µM.

What follows are compounds tested on DU-145 prostate (assay: NCI-60 cell line screen, 48 h).

First: OCc1c[nH]c2ccccc12
Second: CC1=CC(=Nc2ccc(N(CCCl)CCCl)cc2)C=C(C)C1=O
The GI50 of the first is 77-fold higher: 28.7 µM for the first, 0.374 µM for the second.

Going from OCc1c[nH]c2ccccc12 to CCN1CCC(O)(C(C(=O)O)c2ccccc2)CC1 (stereo not given), the TGI rises from 77.4 µM to over 100 µM.

Going from CC1=CC(=Nc2ccc(N(CCCl)CCCl)cc2)C=C(C)C1=O to CN(C)S(=O)(=O)Nc1nnc(S(N)(=O)=O)s1, the TGI rises from 4.57 µM to over 100 µM.

With CCN(CC)CCOc1ccc(/C(=C(\Cl)c2ccccc2)c2ccccc2)cc1 the GI50 was 6.79 µM and 5.62 µM.

With CCN(CC)CCOc1ccc(/C(=C(\Cl)c2ccccc2)c2ccccc2)cc1 the TGI was 13.3 µM and 19.2 µM.

Each compound was assayed on SK-MEL-2 melanoma (assay: NCI-60 cell line screen, 48 h).

Going from OCc1c[nH]c2ccccc12 to CC1=CC(=Nc2ccc(N(CCCl)CCCl)cc2)C=C(C)C1=O, the GI50 falls from 17400 nM to 1480 nM (12-fold).

First: OCc1c[nH]c2ccccc12
Second: CCN1CCC(O)(C(C(=O)O)c2ccccc2)CC1 (stereo not given)
The TGI of the first is lower: 32.8 µM for the first, over 100 µM for the second.

Going from CC1=CC(=Nc2ccc(N(CCCl)CCCl)cc2)C=C(C)C1=O to CN(C)S(=O)(=O)Nc1nnc(S(N)(=O)=O)s1, the TGI rises from 4.77 µM to over 100 µM.

In the case of CCN(CC)CCOc1ccc(/C(=C(\Cl)c2ccccc2)c2ccccc2)cc1, the GI50 is reported as 3260 nM and 1640 nM.

For CCN(CC)CCOc1ccc(/C(=C(\Cl)c2ccccc2)c2ccccc2)cc1, the TGI was 10.4 µM and 3.7 µM.

The compounds below were run on K-562 leukemia (assay: NCI-60 cell line screen, 48 h).

First: OCc1c[nH]c2ccccc12
Second: CCN(CC)CCOc1ccc(/C(=C(\Cl)c2ccccc2)c2ccccc2)cc1
The GI50 of the first is 22-fold higher: 33800 nM for the first, 1550 nM for the second.

Compound CC1=CC(=Nc2ccc(N(CCCl)CCCl)cc2)C=C(C)C1=O has a GI50 of 1210 nM.

OCc1c[nH]c2ccccc12 and CCN1CCC(O)(C(C(=O)O)c2ccccc2)CC1 (stereo not given) cannot be ordered by TGI: over 100 µM for the first, over 100 µM for the second.

Compared with CCN(CC)CCOc1ccc(/C(=C(\Cl)c2ccccc2)c2ccccc2)cc1, CC1=CC(=Nc2ccc(N(CCCl)CCCl)cc2)C=C(C)C1=O is higher in TGI: 11.5 µM for the first, over 100 µM for the second.

Compound CN(C)S(=O)(=O)Nc1nnc(S(N)(=O)=O)s1 has a TGI of over 100 µM.

The compounds below were run on PC-3 prostate (assay: NCI-60 cell line screen, 48 h).

Compared with OCc1c[nH]c2ccccc12, CC1=CC(=Nc2ccc(N(CCCl)CCCl)cc2)C=C(C)C1=O is 10-fold lower in GI50: 15500 nM for the first, 1480 nM for the second.

Going from OCc1c[nH]c2ccccc12 to CCN1CCC(O)(C(C(=O)O)c2ccccc2)CC1 (stereo not given), the TGI rises from 45.3 µM to over 100 µM.

Compared with CC1=CC(=Nc2ccc(N(CCCl)CCCl)cc2)C=C(C)C1=O, CN(C)S(=O)(=O)Nc1nnc(S(N)(=O)=O)s1 is higher in TGI: 7.08 µM for the first, over 100 µM for the second.

CCN(CC)CCOc1ccc(/C(=C(\Cl)c2ccccc2)c2ccccc2)cc1 was tested, and the GI50 was 2630 nM and 2760 nM.

CCN(CC)CCOc1ccc(/C(=C(\Cl)c2ccccc2)c2ccccc2)cc1 was tested, and the TGI was 9.02 µM and 10.2 µM.

What follows are compounds tested on UO-31 renal (assay: NCI-60 cell line screen, 48 h).

Work on OCc1c[nH]c2ccccc12 yielded a GI50 of 6290 nM.

Going from OCc1c[nH]c2ccccc12 to CCN1CCC(O)(C(C(=O)O)c2ccccc2)CC1 (stereo not given), the TGI rises from 50.9 µM to over 100 µM.

Work on CN(C)S(=O)(=O)Nc1nnc(S(N)(=O)=O)s1 yielded a TGI of over 100 µM.

With CCN(CC)CCOc1ccc(/C(=C(\Cl)c2ccccc2)c2ccccc2)cc1 the GI50 was 856 nM and 1490 nM.

For CCN(CC)CCOc1ccc(/C(=C(\Cl)c2ccccc2)c2ccccc2)cc1, the TGI was 2.62 µM and 5.9 µM.

Each compound was assayed on SF-295 CNS (assay: NCI-60 cell line screen, 48 h).

Compared with OCc1c[nH]c2ccccc12, CC1=CC(=Nc2ccc(N(CCCl)CCCl)cc2)C=C(C)C1=O is 31-fold lower in GI50: 19400 nM for the first, 626 nM for the second.

First: OCc1c[nH]c2ccccc12
Second: CCN1CCC(O)(C(C(=O)O)c2ccccc2)CC1 (stereo not given)
The TGI of the first is lower: 40.9 µM for the first, over 100 µM for the second.

Going from CC1=CC(=Nc2ccc(N(CCCl)CCCl)cc2)C=C(C)C1=O to CN(C)S(=O)(=O)Nc1nnc(S(N)(=O)=O)s1, the TGI rises from 22.6 µM to over 100 µM.

With CCN(CC)CCOc1ccc(/C(=C(\Cl)c2ccccc2)c2ccccc2)cc1 the GI50 was 1060 nM and 1870 nM.

With CCN(CC)CCOc1ccc(/C(=C(\Cl)c2ccccc2)c2ccccc2)cc1 the TGI was 2.54 µM and 4.02 µM.

What follows are compounds tested on OVCAR-4 ovarian (assay: NCI-60 cell line screen, 48 h).

Going from OCc1c[nH]c2ccccc12 to CC1=CC(=Nc2ccc(N(CCCl)CCCl)cc2)C=C(C)C1=O, the GI50 falls from 33 µM to 1.56 µM (21-fold).

OCc1c[nH]c2ccccc12 and CCN1CCC(O)(C(C(=O)O)c2ccccc2)CC1 (stereo not given) cannot be ordered by TGI: over 100 µM for the first, over 100 µM for the second.

Going from CC1=CC(=Nc2ccc(N(CCCl)CCCl)cc2)C=C(C)C1=O to CN(C)S(=O)(=O)Nc1nnc(S(N)(=O)=O)s1, the TGI rises from 4.76 µM to over 100 µM.

CCN(CC)CCOc1ccc(/C(=C(\Cl)c2ccccc2)c2ccccc2)cc1 was tested, and the GI50 was 5.31 µM and 3.14 µM.

CCN(CC)CCOc1ccc(/C(=C(\Cl)c2ccccc2)c2ccccc2)cc1 was tested, and the TGI was 11.3 µM and 11.6 µM.

Each compound was assayed on SN12C renal (assay: NCI-60 cell line screen, 48 h).

First: OCc1c[nH]c2ccccc12
Second: CC1=CC(=Nc2ccc(N(CCCl)CCCl)cc2)C=C(C)C1=O
The GI50 of the first is 19-fold higher: 18.9 µM for the first, 1.01 µM for the second.

OCc1c[nH]c2ccccc12 and CC1=CC(=Nc2ccc(N(CCCl)CCCl)cc2)C=C(C)C1=O cannot be ordered by TGI: 39.7 µM for the first, over 26.7 µM for the second.

For CCN(CC)CCOc1ccc(/C(=C(\Cl)c2ccccc2)c2ccccc2)cc1, the GI50 was 5.28 µM and 4.43 µM.

With CCN(CC)CCOc1ccc(/C(=C(\Cl)c2ccccc2)c2ccccc2)cc1 the TGI was 11.9 µM and 16.5 µM.

What follows are compounds tested on NCI-H460 lung (assay: NCI-60 cell line screen, 48 h).

Going from OCc1c[nH]c2ccccc12 to CC1=CC(=Nc2ccc(N(CCCl)CCCl)cc2)C=C(C)C1=O, the GI50 falls from 21000 nM to 181 nM (120-fold).

Going from OCc1c[nH]c2ccccc12 to CCN1CCC(O)(C(C(=O)O)c2ccccc2)CC1 (stereo not given), the TGI rises from 45.4 µM to over 100 µM.

Compared with CC1=CC(=Nc2ccc(N(CCCl)CCCl)cc2)C=C(C)C1=O, CN(C)S(=O)(=O)Nc1nnc(S(N)(=O)=O)s1 is higher in TGI: 1.96 µM for the first, over 100 µM for the second.

For CCN(CC)CCOc1ccc(/C(=C(\Cl)c2ccccc2)c2ccccc2)cc1, the GI50 was 1720 nM and 1780 nM.

CCN(CC)CCOc1ccc(/C(=C(\Cl)c2ccccc2)c2ccccc2)cc1 was tested, and the TGI was 5.32 µM and 3.43 µM.

What follows are compounds tested on ACHN renal (assay: NCI-60 cell line screen, 48 h).

First: OCc1c[nH]c2ccccc12
Second: CC1=CC(=Nc2ccc(N(CCCl)CCCl)cc2)C=C(C)C1=O
The GI50 of the first is 84-fold higher: 24.4 µM for the first, 0.29 µM for the second.

First: OCc1c[nH]c2ccccc12
Second: CCN1CCC(O)(C(C(=O)O)c2ccccc2)CC1 (stereo not given)
The TGI of the first is lower: 86.4 µM for the first, over 100 µM for the second.

Compared with CC1=CC(=Nc2ccc(N(CCCl)CCCl)cc2)C=C(C)C1=O, CN(C)S(=O)(=O)Nc1nnc(S(N)(=O)=O)s1 is higher in TGI: 1.61 µM for the first, over 100 µM for the second.

In the case of CCN(CC)CCOc1ccc(/C(=C(\Cl)c2ccccc2)c2ccccc2)cc1, the GI50 is reported as 6.4 µM and 4.27 µM.

With CCN(CC)CCOc1ccc(/C(=C(\Cl)c2ccccc2)c2ccccc2)cc1 the TGI was 13.1 µM and 16.5 µM.

Each compound was assayed on NCI-H23 lung (assay: NCI-60 cell line screen, 48 h).

First: OCc1c[nH]c2ccccc12
Second: CC1=CC(=Nc2ccc(N(CCCl)CCCl)cc2)C=C(C)C1=O
The GI50 of the first is 25-fold higher: 19.5 µM for the first, 0.768 µM for the second.

Going from OCc1c[nH]c2ccccc12 to CCN1CCC(O)(C(C(=O)O)c2ccccc2)CC1 (stereo not given), the TGI rises from 48.1 µM to over 100 µM.

First: CC1=CC(=Nc2ccc(N(CCCl)CCCl)cc2)C=C(C)C1=O
Second: CN(C)S(=O)(=O)Nc1nnc(S(N)(=O)=O)s1
The TGI of the first is lower: 4.36 µM for the first, over 100 µM for the second.

For CCN(CC)CCOc1ccc(/C(=C(\Cl)c2ccccc2)c2ccccc2)cc1, the GI50 was 5.25 µM and 2.62 µM.

In the case of CCN(CC)CCOc1ccc(/C(=C(\Cl)c2ccccc2)c2ccccc2)cc1, the TGI is reported as 11.8 µM and 10.3 µM.

What follows are compounds tested on HCT-116 colon (assay: NCI-60 cell line screen, 48 h).

Going from OCc1c[nH]c2ccccc12 to CC1=CC(=Nc2ccc(N(CCCl)CCCl)cc2)C=C(C)C1=O, the GI50 falls from 17200 nM to 935 nM (18-fold).

First: OCc1c[nH]c2ccccc12
Second: CC1=CC(=Nc2ccc(N(CCCl)CCCl)cc2)C=C(C)C1=O
The TGI of the first is 13-fold higher: 31.9 µM for the first, 2.38 µM for the second.

In the case of CN(C)S(=O)(=O)Nc1nnc(S(N)(=O)=O)s1, the TGI is reported as over 100 µM.

CCN(CC)CCOc1ccc(/C(=C(\Cl)c2ccccc2)c2ccccc2)cc1 was tested, and the GI50 was 2030 nM and 1490 nM.

In the case of CCN(CC)CCOc1ccc(/C(=C(\Cl)c2ccccc2)c2ccccc2)cc1, the TGI is reported as 7.14 µM and 3.07 µM.

What follows are compounds tested on COLO 205 colon (assay: NCI-60 cell line screen, 48 h).

OCc1c[nH]c2ccccc12 gave a GI50 of 16000 nM.

First: OCc1c[nH]c2ccccc12
Second: CCN1CCC(O)(C(C(=O)O)c2ccccc2)CC1 (stereo not given)
The TGI of the first is lower: 35100 nM for the first, over 100000 nM for the second.

In the case of CCN(CC)CCOc1ccc(/C(=C(\Cl)c2ccccc2)c2ccccc2)cc1, the GI50 is reported as 859 nM and 1360 nM.

In the case of CCN(CC)CCOc1ccc(/C(=C(\Cl)c2ccccc2)c2ccccc2)cc1, the TGI is reported as 1720 nM and 2830 nM.
